According to patent publication US10077277B2, “Bicyclic heteroarylaminoalkyl phenyl derivatives as PI3K inhibitors” (Incyte Corporation, priority 2014, dated 2018):
Like-named read-outs stand apart in the source and are kept apart here.

Key:
[1] = target: PI3Kδ (p110δ/p85α) (Homo sapiens (Human), UniProt O00329); assay: PI3Kδ scintillation proximity assay (Example A3); assay type: biochemical; conditions: Assay A3, 20 μM ATP
Text: Example A3: PI3Kδ Scintillation Proximity Assay
[γ-^33P]ATP (10 mCi/mL) was purchased from PerkinElmer (Waltham, Mass.). Lipid kinase substrate, D-myo-Phosphatidylinositol 4,5-bisphosphate (PtdIns(4,5)P2)D (+)-sn-1,2-di-O-octanoylglyceryl, 3-O-phospho linked (PIP2), CAS 204858-53-7, was purchased from Echelon Biosciences (Salt Lake City, Utah). PI3Kδ (p110δ/p85α) was purchased from Millipore (Bedford, Mass.). ATP, MgCl2, DTT, EDTA, MOPS and CHAPS were purchased from SigmaAldrich (St. Louis, Mo.). Wheat Germ Agglutinin (WGA) YSi SPA Scintillation Beads was purchased from GE healthcare life sciences (Piscataway, N.J.).
The kinase reaction was conducted in polystyrene 384-well matrix white plate from Thermo Fisher Scientific in a final volume of 25 μL. Inhibitors were first diluted serially in DMSO and added to the plate wells before the addition of other reaction components. The final concentration of DMSO in the assay was 0.5%. The PI3K assays were carried out at room temperature in 20 mM MOPS, pH 6.7, 10 mM MgCl2, 5 mM DTT and CHAPS 0.03%. Reactions were initiated by the addition of ATP, the final reaction mixture consisted of 20 μM PIP2, 20 μM ATP, 0.2 μCi [γ-^33P] ATP, 4 nM PI3Kδ. Reactions were incubated for 210 min and terminated by the addition of 40 μL SPA beads suspended in quench buffer: 150 mM potassium phosphate pH 8.0, 20% glycerol. 25 mM EDTA, 400 μM ATP. The final concentration of SPA beads was 1.0 mg/mL. After the plate sealing, plates were shaken overnight at room temperature and centrifuged at 1800 rpm for 10 minutes, the radioactivity of the product was determined by scintillation counting on Topcount (PerkinElmer). IC50 determination was performed by fitting the curve of percent control activity versus the log of the inhibitor concentration using the GraphPad Prism 3.0 software. IC50 data for the Examples is presented in Table 2 as determined by Assay A3.

[2] = tested on: SUDHL-6 cells; assay: SUDHL-6 cell proliferation assay (Example B3); assay type: cell-based; conditions: 3 days, Cell Titer-GLO ATP quantitation, read-out: SUDHL6 IC50
Description: Example B3: SUDHL-6 Cell Proliferation Assay
SUDHL-6 cell line (diffuse large B cell lymphoma) was purchased from ATCC (Manassas, Va.) and maintained in the culture medium recommended (RPMI and 10% FBS). To measure the anti-proliferation activity of the compounds through ATP quantitation, the SUDHL-6 cells was plated with the culture medium (5000 cells/well/per 200 μl) into 96-well polystyrene clear black tissue culture plate (Greiner-bio-one through VWR, NJ) in the presence or absence of a concentration range of test compounds. After 3 days, Cell Titer-GLO Luminescent (Promega, Madison, Wis.) cell culture agent was added to each well for 10 minutes at room temperature to stabilize the luminescent signal. This determines the number of viable cells in culture based on quantitation of the ATP present, which signals the presence of metabolically active cells. Luminescence was measured with the TopCount 384 (Packard Bioscience through Perkin Elmer, Boston, Mass.). IC50 data for the Examples is presented in Table 3 determined by the assay of Example B3.

Sequence of PI3Kδ (p110δ/p85α) (O00329 whole entry): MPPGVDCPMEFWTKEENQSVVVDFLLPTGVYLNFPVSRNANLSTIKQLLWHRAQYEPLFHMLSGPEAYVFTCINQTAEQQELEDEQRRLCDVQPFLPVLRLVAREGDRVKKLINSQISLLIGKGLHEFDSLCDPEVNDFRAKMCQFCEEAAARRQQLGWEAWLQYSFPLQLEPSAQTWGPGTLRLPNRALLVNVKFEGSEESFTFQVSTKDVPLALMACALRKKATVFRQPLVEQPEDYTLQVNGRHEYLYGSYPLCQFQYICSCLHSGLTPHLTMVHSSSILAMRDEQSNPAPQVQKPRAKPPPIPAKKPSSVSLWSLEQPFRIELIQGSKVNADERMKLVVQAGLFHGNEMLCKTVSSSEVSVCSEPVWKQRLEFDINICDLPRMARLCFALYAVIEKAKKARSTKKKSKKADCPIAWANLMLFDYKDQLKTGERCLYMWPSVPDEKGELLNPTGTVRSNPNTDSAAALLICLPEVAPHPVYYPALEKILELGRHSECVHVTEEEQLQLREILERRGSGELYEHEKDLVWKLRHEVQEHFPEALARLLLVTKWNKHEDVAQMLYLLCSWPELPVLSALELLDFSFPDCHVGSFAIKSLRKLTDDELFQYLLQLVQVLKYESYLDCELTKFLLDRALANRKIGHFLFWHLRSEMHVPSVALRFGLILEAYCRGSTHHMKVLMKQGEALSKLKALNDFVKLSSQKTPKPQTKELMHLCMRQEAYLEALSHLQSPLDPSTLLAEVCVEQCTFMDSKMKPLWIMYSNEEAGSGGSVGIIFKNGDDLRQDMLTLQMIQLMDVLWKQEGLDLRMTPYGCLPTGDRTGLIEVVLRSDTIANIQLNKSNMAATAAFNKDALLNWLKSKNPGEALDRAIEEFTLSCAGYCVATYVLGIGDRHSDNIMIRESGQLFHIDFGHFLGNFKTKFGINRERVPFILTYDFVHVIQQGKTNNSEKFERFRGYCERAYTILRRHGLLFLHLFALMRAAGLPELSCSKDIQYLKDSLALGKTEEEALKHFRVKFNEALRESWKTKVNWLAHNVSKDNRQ
Sequence of PI3Kδ (p110δ/p85α) (P27986 whole entry partner): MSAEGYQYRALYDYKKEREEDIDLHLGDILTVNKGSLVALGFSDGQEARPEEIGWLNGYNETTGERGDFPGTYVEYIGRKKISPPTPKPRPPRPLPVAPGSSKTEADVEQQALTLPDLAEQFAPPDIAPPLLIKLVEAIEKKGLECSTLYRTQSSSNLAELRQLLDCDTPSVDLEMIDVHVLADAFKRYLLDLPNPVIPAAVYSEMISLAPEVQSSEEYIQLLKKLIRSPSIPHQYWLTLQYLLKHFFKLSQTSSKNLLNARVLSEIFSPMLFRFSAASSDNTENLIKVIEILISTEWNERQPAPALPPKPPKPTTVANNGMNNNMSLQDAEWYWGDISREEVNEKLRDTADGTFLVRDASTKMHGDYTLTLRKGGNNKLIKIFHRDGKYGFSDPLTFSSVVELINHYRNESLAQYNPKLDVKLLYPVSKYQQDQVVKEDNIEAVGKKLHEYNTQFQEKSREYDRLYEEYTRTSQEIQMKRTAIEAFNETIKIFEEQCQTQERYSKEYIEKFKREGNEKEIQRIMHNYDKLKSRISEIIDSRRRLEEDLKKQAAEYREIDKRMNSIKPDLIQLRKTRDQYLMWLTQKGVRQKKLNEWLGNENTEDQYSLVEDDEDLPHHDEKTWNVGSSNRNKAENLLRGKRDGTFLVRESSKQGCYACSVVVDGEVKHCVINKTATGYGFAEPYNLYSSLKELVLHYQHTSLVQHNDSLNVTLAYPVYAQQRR

| IC50 [1] [nM] | IC50 ([2]; Homo sapiens, SU-DHL-6, 72 h) [nM] | Compound | IC50 [2] [nM] |
| --- | --- | --- | --- |
| ≤ 100 | ≤ 500 | COc1c([C@H](C)Nc2ncnc3cccnc23)cc(Cl)c(C)c1-c1ccc(C(=O)N(C)C)nc1 [Example 3, 5-{3-Chloro-6-methoxy-2-methyl-5-[(1S)-1-(pyrido[3,2-d]pyrimidin-4-ylamino)ethyl]phenyl}-N,N-dimethylpyridine-2-carboxamide bis(trifluoroacetate)] | – |
| ≤ 100 | ≤ 500 | CCNC(=O)c1c(C)c(Cl)cc(C(C)Nc2ncnc3cccnc23)c1-c1cc(F)cc(F)c1 (stereo not shown) [Example 4, 4-Chloro-N-ethyl-3′,5′-difluoro-3-methyl-6-[1-(pyrido[3,2-d]pyrimidin-4-ylamino)ethyl]biphenyl-2-carboxamide] | – |

The remaining lines, values behind:

| Compound | IC50 [1] [nM] | IC50 ([2]; Homo sapiens, SU-DHL-6, 72 h) [nM] | IC50 [2] [nM] |
| --- | --- | --- | --- |
| CCOc1c(C(C)Nc2ncnc3scnc23)cc(Cl)c(F)c1C1CNC(=O)C1 (single isomer, unassigned) [Example 1C, 4-{3-chloro-6-ethoxy-2-fluoro-5-[1-([1,3]thiazolo[5,4-d]pyrimidin-7-ylamino)ethyl]phenyl}pyrrolidin-2-one] | ≤ 100 | – | ≤ 500 |
| CCOc1c([C@@H](C)Nc2ncnc3cccnc23)cc(Cl)c(F)c1[C@@H]1CNC(=O)C1 [Example 2A, 4-{3-chloro-6-ethoxy-2-fluoro-5-[1-(pyrido[3,2-d]pyrimidin-4-ylamino)ethyl]phenyl}pyrrolidin-2-one] | ≤ 100 | ≤ 500 | – |
| CCOc1c(C(C)Nc2ncnc3scnc23)cc(Cl)c(F)c1C1CNC(=O)C1 (single isomer, unassigned) [Example 1A, 4-{3-chloro-6-ethoxy-2-fluoro-5-[1-([1,3]thiazolo[5,4-d]pyrimidin-7-ylamino)ethyl]phenyl}pyrrolidin-2-one] | ≤ 100 | ≤ 500 | – |
